{"source": "ChEMBL document CHEMBL1129320", "about": "“The enediyne antibiotics” (J Med Chem, 1996)", "key": {"[1]": {"system": "L1210", "assay": "Cytotoxic activity against L-1210 mouse leukemia tumor cell lines.", "format": "functional, cell-based"}, "[2]": {"system": "M21", "assay": "Cytotoxic activity against M-21 melanoma tumor cell lines.", "format": "functional, cell-based", "conditions": "Homo sapiens"}, "[3]": {"system": "HNBM", "assay": "Cytotoxic activity against HNBM bone marrow normal cell lines.", "format": "functional, cell-based", "conditions": "Homo sapiens"}, "[4]": {"system": "HL-60", "assay": "Cytotoxic activity against HL-60 promyelocytic leukemia tumor cell lines.", "format": "functional, cell-based", "conditions": "Homo sapiens"}, "[5]": {"system": "TCAF-DAX", "assay": "Cytotoxic activity against TCAF-DAX T-cell leukemia tumor cell lines.", "format": "functional, cell-based", "conditions": "Homo sapiens"}, "[6]": {"system": "U-251", "assay": "Cytotoxic activity against U-251 MG glioblastoma tumor cell lines.", "format": "functional, cell-based", "conditions": "Homo sapiens"}, "[7]": {"system": "P388", "assay": "Cytotoxic activity against P-388 mouse leukemia cell lines.", "format": "functional, cell-based"}, "[8]": {"system": "H322", "assay": "Cytotoxic activity against H-322 lung carcinoma tumor cell lines.", "format": "functional, cell-based", "conditions": "Homo sapiens, NCI-H322"}, "[9]": {"system": "RPMI-8226", "assay": "Cytotoxic activity against RPMI-8226 myeloma tumor cell lines.", "format": "functional, cell-based", "conditions": "Homo sapiens"}, "[10]": {"system": "HMEC", "assay": "Cytotoxic activity against HMEC human mammary epithelial normal cell lines.", "format": "functional, cell-based"}, "[11]": {"system": "UCLA P-3", "assay": "Cytotoxic activity against UCLA P-3 lung carcinoma tumor cell lines.", "format": "functional, cell-based", "conditions": "Homo sapiens"}, "[12]": {"system": "NHDF", "assay": "Cytotoxic activity against NHDF normal human dermal fibroblast cell lines.", "format": "functional, cell-based"}, "[13]": {"system": "CAPAN-1", "assay": "Cytotoxic activity against Capan-1 pancreatic carcinoma tumor cell lines.", "format": "functional, cell-based", "conditions": "Homo sapiens"}, "[14]": {"system": "M14", "assay": "Cytotoxic activity against M-14 melanoma tumor cell lines.", "format": "functional, cell-based", "conditions": "Homo sapiens"}, "[15]": {"system": "U-87 MG", "assay": "Cytotoxic activity against […] astrocytoma tumor cell lines.", "format": "functional, cell-based, U-87MG ATCC", "conditions": "Homo sapiens"}, "[16]": {"system": "TCAF", "assay": "Cytotoxic activity against TCAF T-cell leukemia tumor cell lines.", "format": "functional, cell-based", "conditions": "Homo sapiens"}, "[17]": {"system": "OVCAR-4", "assay": "Cytotoxic activity against Ovcar-4 ovarian carcinoma tumor cell lines.", "format": "functional, cell-based", "conditions": "Homo sapiens"}, "[18]": {"system": "HT-29", "assay": "Cytotoxic activity against HT-29 Colon carcinoma tumor cell lines.", "format": "functional, cell-based", "conditions": "Homo sapiens"}, "[19]": {"system": "OVCAR-3", "assay": "Cytotoxic activity against Ovcar-3 ovarian carcinoma tumor cell lines.", "format": "functional, cell-based", "conditions": "Homo sapiens"}, "[20]": {"system": "MCF7", "assay": "Cytotoxic activity against MCF-7 breast carcinoma tumor cell lines.", "format": "functional, cell-based", "conditions": "Homo sapiens"}, "[21]": {"system": "SK-MEL-28", "assay": "Cytotoxic activity against SK-Mel-28 melanoma tumor cell lines.", "format": "functional, cell-based", "conditions": "Homo sapiens"}, "[22]": {"assay": "Half life at 37 degree Centigrade", "format": "ADME"}, "[23]": {"assay": "Half life at 55 degree Centigrade", "format": "ADME"}, "[24]": {"assay": "Half life at 110 degree Centigrade", "format": "ADME"}, "[25]": {"system": "L1210", "assay": "Optimum dose against murine L1210 leukemia", "format": "functional, Mus musculus"}, "[26]": {"system": "Colon 26 (Mus musculus)", "assay": "Optimum dose against solid neoplasm colon 26"}, "[27]": {"system": "P388", "assay": "Optimum dose against P388 murine tumor cell line", "format": "functional, Mus musculus"}, "[28]": {"system": "B16", "assay": "Optimum dose against solid neoplasm B-16 melanoma", "format": "functional, Mus musculus"}}, "note": "pIC50: −log10 of the molar value.", "data": [{"smiles": "O=C(OCCS(=O)(=O)c1ccccc1)N1c2ccc(OCCO)cc2[C@@]23O[C@]24CCC[C@H]3C#C/C=C\\C#C[C@H]14", "values": [{"measurement": "pIC50", "setting": "[1]", "value": 8.89}, {"measurement": "pIC50", "setting": "[2]", "value": 5.80}, {"measurement": "pIC50", "setting": "[3]", "value": 4.30}, {"measurement": "pIC50", "setting": "[4]", "value": 10.44}, {"measurement": "pIC50", "setting": "[5]", "value": 8.77}, {"measurement": "pIC50", "setting": "[6]", "value": 6.41}, {"measurement": "pIC50", "setting": "[7]", "value": 8.34}, {"measurement": "pIC50", "setting": "[8]", "value": 6.41}, {"measurement": "pIC50", "setting": "[9]", "value": 8.11}, {"measurement": "pIC50", "setting": "[10]", "value": 5.20}, {"measurement": "pIC50", "setting": "[11]", "value": 7.01}, {"measurement": "pIC50", "setting": "[12]", "value": 5.30}, {"measurement": "pIC50", "setting": "[13]", "value": 8.51}, {"measurement": "pIC50", "setting": "[14]", "value": 5.80}, {"measurement": "pIC50", "setting": "[15]", "value": 6.11}, {"measurement": "pIC50", "setting": "[16]", "value": 8.96}, {"measurement": "pIC50", "setting": "[17]", "value": 6.11}, {"measurement": "pIC50", "setting": "[18]", "value": 5.80}, {"measurement": "pIC50", "setting": "[19]", "value": 6.11}, {"measurement": "pIC50", "setting": "[20]", "value": 6.11}, {"measurement": "pIC50", "setting": "[21]", "value": 5.51}]}, {"smiles": "CNC1C(O[C@H]2C#C/C=C\\C#C[C@]3(O)CC(=O)C(NC(=O)OC)[C@]24SCCC=C34)OC(C)C(O)C1O", "note": "(stereo partly drawn)", "values": [{"measurement": "T1/2", "setting": "[22]", "value": 4.5, "unit": "s"}]}, {"smiles": "CC1=C(C)C(=O)C2=C(C#CCCCC(=O)C#C2)C1=O", "values": [{"measurement": "half-life", "setting": "[23]", "value": 0.533, "unit": "h"}]}, {"smiles": "Cc1c(C)c(C(=O)OC(C)(C)C)c2c(c1C(=O)OC(C)(C)C)C#CCCCC(O)C#C2", "note": "(stereo not drawn)", "values": [{"measurement": "half-life", "setting": "[24]", "value": 74, "unit": "h"}]}, {"smiles": "CC1=C(C)C(=O)C2=C(C#CCCCC(O)C#C2)C1=O", "note": "(stereo not drawn)", "values": [{"measurement": "half-life", "setting": "[23]", "value": 2.6, "unit": "h"}]}, {"smiles": "CCNC1COC(OC2C(OC3C#C/C=C\\C#C[C@]4(O)CC(=O)C(NC(=O)OC)=C3/C4=C/CSSSC)OC(C)C(NOC3CC(O)C(SC(=O)c4c(C)c(I)c(O)c(OC)c4OC)C(C)O3)C2O)CC1OC", "note": "(stereo partly drawn) [CALICHEAMICIN ALPHA1 I]", "values": [{"measurement": "OD", "setting": "[25]", "value": 5, "unit": "µg/kg"}, {"measurement": "OD", "setting": "[26]", "value": 5, "unit": "µg/kg"}, {"measurement": "OD", "setting": "[27]", "value": 5, "unit": "µg/kg"}, {"measurement": "OD", "setting": "[28]", "value": 5, "unit": "µg/kg"}]}, {"smiles": "COC(=O)NC1=C2/C(=C/CSSSC)[C@](O)(C#C/C=C\\C#CC2OC2OC(C)C(NOC3CC(O)C(SC(=O)c4c(C)c(I)c(OC5OC(C)C(O)C(OC)C5O)c(OC)c4OC)C(C)O3)C(O)C2O)CC1=O", "note": "(stereo partly drawn) [CALICHEAMICIN ALPHA3 I]", "values": [{"measurement": "OD", "setting": "[25]", "value": 5, "unit": "µg/kg"}, {"measurement": "OD", "setting": "[26]", "value": 5, "unit": "µg/kg"}, {"measurement": "OD", "setting": "[27]", "value": 5, "unit": "µg/kg"}, {"measurement": "OD", "setting": "[28]", "value": 5, "unit": "µg/kg"}]}, {"smiles": "COC(=O)NC1=C2/C(=C/CSSSC)[C@](O)(C#C/C=C\\C#CC2OC2OC(C)C(NOC3CC(O)C(SC(=O)c4c(C)c(Br)c(OC5OC(C)C(O)C(OC)C5O)c(OC)c4OC)C(C)O3)C(O)C2OC2CC(OC)C(NC(C)C)CO2)CC1=O", "note": "(stereo partly drawn) [CALICHEAMICIN BETA1 BR]", "values": [{"measurement": "OD", "setting": "[25]", "value": 5, "unit": "µg/kg"}, {"measurement": "OD", "setting": "[26]", "value": 5, "unit": "µg/kg"}, {"measurement": "OD", "setting": "[27]", "value": 5, "unit": "µg/kg"}, {"measurement": "OD", "setting": "[28]", "value": 5, "unit": "µg/kg"}]}, {"smiles": "COC(=O)NC1=C2/C(=C/CSSSC)[C@](O)(C#C/C=C\\C#CC2OC2OC(C)C(NOC3CC(O)C(SC(=O)c4c(C)c(I)c(OC5OC(C)C(O)C(OC)C5O)c(OC)c4OC)C(C)O3)C(O)C2OC2CC(OC)C(NC(C)C)CO2)CC1=O", "note": "(stereo partly drawn) [CALICHEAMICIN BETA1 I]", "values": [{"measurement": "OD", "setting": "[25]", "value": 5, "unit": "µg/kg"}, {"measurement": "OD", "setting": "[26]", "value": 5, "unit": "µg/kg"}, {"measurement": "OD", "setting": "[27]", "value": 5, "unit": "µg/kg"}, {"measurement": "OD", "setting": "[28]", "value": 5, "unit": "µg/kg"}]}, {"smiles": "CNC1COC(OC2C(OC3C#C/C=C\\C#C[C@]4(O)CC(=O)C(NC(=O)OC)=C3/C4=C/CSSSC)OC(C)C(NOC3CC(O)C(SC(=O)c4c(C)c(I)c(OC5OC(C)C(O)C(OC)C5O)c(OC)c4OC)C(C)O3)C2O)CC1OC", "note": "(stereo partly drawn) [CALICHEAMICIN DELTA1 I]", "values": [{"measurement": "OD", "setting": "[25]", "value": 5, "unit": "µg/kg"}, {"measurement": "OD", "setting": "[26]", "value": 5, "unit": "µg/kg"}, {"measurement": "OD", "setting": "[27]", "value": 5, "unit": "µg/kg"}, {"measurement": "OD", "setting": "[28]", "value": 5, "unit": "µg/kg"}]}, {"smiles": "CCNC1COC(OC2C(OC3C#C/C=C\\C#C[C@]4(O)CC(=O)C(NC(=O)OC)=C3/C4=C/CSSSC)OC(C)C(NOC3CC(O)C(SC(=O)c4c(C)c(Br)c(OC5OC(C)C(O)C(OC)C5O)c(OC)c4OC)C(C)O3)C2O)CC1OC", "note": "(stereo partly drawn) [CALICHEAMICIN GAMMA1 BR]", "values": [{"measurement": "OD", "setting": "[25]", "value": 5, "unit": "µg/kg"}, {"measurement": "OD", "setting": "[26]", "value": 5, "unit": "µg/kg"}, {"measurement": "OD", "setting": "[27]", "value": 5, "unit": "µg/kg"}, {"measurement": "OD", "setting": "[28]", "value": 5, "unit": "µg/kg"}]}, {"smiles": "CCN[C@H]1CO[C@@H](O[C@H]2[C@H](O[C@H]3C#C/C=C/C#C[C@@]4(O)CC(=O)C(NC(=O)OC)=C3/C4=C\\CSSSC)O[C@H](C)[C@@H](NO[C@H]3C[C@H](O)[C@H](SC(=O)c4c(C)c(I)c(O[C@@H]5O[C@@H](C)[C@H](O)[C@@H](OC)[C@H]5O)c(OC)c4OC)[C@@H](C)O3)[C@@H]2O)C[C@@H]1OC", "note": "[CALICHEAMICIN GAMMA1 I]", "values": [{"measurement": "OD", "setting": "[25]", "value": 5, "unit": "µg/kg"}, {"measurement": "OD", "setting": "[26]", "value": 5, "unit": "µg/kg"}, {"measurement": "OD", "setting": "[27]", "value": 5, "unit": "µg/kg"}, {"measurement": "OD", "setting": "[28]", "value": 5, "unit": "µg/kg"}]}]}
